# Measurements reported in patent US20140051685A1, “THERAPEUTIC TREATMENT FOR METABOLIC SYNDROME, TYPE 2 DIABETES, OBESITY OR PREDIABETES” (priority 2010, published 2014).
# Experiments:
# Assay type in all cases: in vivo
# [1] = tested on: obese, diabetic female (ob/ob) mice; assay: GBR 12909 once daily for 14 days in obese, diabetic ob/ob mice; conditions: 30 mg/kg once daily
# Protocol: GBR 12909 (1-(2-[bis(4-Fluorophenyl)methoxy]ethyl)-4-(3-phenylpropyl)piperazine dihydrochloride) is a specific dopamine reuptake inhibitor. Systemic administration of GBR 12909 can increase the dopaminergic to noradrenergic neuronal activity in the central nervous system. A study was conducted to determine the effects of GBR 12909 upon blood glucose and plasma free fatty acid levels in obese, diabetic mice (ob/ob strain). The ob/ob mouse is hyperphagic, obese, insulin resistant, diabetic and dyslipidemic due to the absence of functional leptin as a result of a mutation in this gene. Starvation or calorie restriction of these mice leads to increases in plasma free fatty acid levels that can function over the long term to worsen diabetes.
# Different groups of obese, diabetic female (ob/ob) mice (body weight of approximately 33 g) maintained on 12 hour daily photoperiods, housed one per cage and allowed to feed ad libitum were randomized to once daily treatment with either a specific dopamine reuptake inhibitor, GBR 12909 at a dose of 30 mg/kg body weight (n=5-7) or vehicle (control group; n=5-7) for a 14 day period. On the fifteenth day of the study and approximately 24 hours after the final treatment animals were sacrificed and blood samples were obtained for the analyses of blood glucose and plasma free fatty acid and triglyceride levels.
# [2] = tested on: obese, diabetic female ob/ob mice with mild diabetes; assay: GBR 12909 and clonidine, interactive effects on blood glucose in ob/ob mice; conditions: GBR 12909 about 20 mg/kg, clonidine about 0.1 mg/kg, alone or together, once daily 14 days, controls 202±41
# Protocol: GBR 12909 is a specific dopamine reuptake inhibitor. Its use can increase the dopaminergic to noradrenergic neuronal activity in the central nervous system. However, by combining GBR 12909 with clonidine, a noradrenergic alpha 2 receptor agonist with preferential affinity for presynaptic alpha 2 sites, it is possible to further increase the dopamine to noradrenaline neuronal activity ratio in the central nervous system. A study was conducted to determine the interactive effects of GBR 12909 and clonidine on blood glucose level in ob/ob mice.
# Obese, diabetic female ob/ob mice (body weight of approximately 28 g) with mild diabetes were maintained on 14 hour daily photoperiods, housed one per cage and allowed to feed ad libitum. Different groups of these animals were randomized to once daily treatment with either a specific dopamine reuptake inhibitor, GBR 12909 at an approximate dose of 20 mg/kg body weight (n=4), or clonidine at an approximate dose of 0.1 mg/kg (n=5), these same dosages of GBR 12909 plus clonidine (n=3), or vehicle (control group; n=5-7) for a 14 day period. On the fifteenth day of the study and approximately 24 hours after the final treatment animals were sacrificed and blood samples were obtained for the analyses of blood glucose levels.
# [3] = tested on: female mice fed a high fat diet for 20 weeks; assay: GBR 12909 plus fusaric acid in mice fed a high fat diet
# Protocol: Female mice at 4 weeks of age were fed a high fat diet for 20 weeks to induce diabetes and insulin resistance and continued on such diet while treated for 14 days with either GBR 12909 (10 mg/kg), FA (15 mg/kg), GBR 12909 (10 mg/kg) plus FA (15 mg/kg), or vehicle and sacrificed after 14 days of treatment for the analyses of body fat, blood glucose, plasma insulin, and plasma nitric oxide levels. […] Only the GBR/FA group normalized plasma insulin levels. […] This effect was not observed with either GBR or FA treatments alone.
# [4] = tested on: male mice fed a high fat diet; assay: GBR versus bupropion in mice fed a high fat diet
# Protocol: The effect of increasing central dopamine neuronal activity versus increasing central dopamine plus norepinephirne neuronal activity on body fat, blood glucose, plasma insulin, and insulin sensitivity was studied in male mice fed a high fat diet from 4 weeks of age until 24 weeks of age. These mice were maintained on this high fat diet while treated with either GBR (20 mg/kg) (a selective dopamine reuptake inhibitor) or bupropion (20 mg/kg) (a dopamine and norepinpehrine reuptake inhibitor) at doses that approximate their 50% maximal effective dose for these functions in vivo in rodents.
# [5] = tested on: female C57 Black mice fed a high simple sugar/moderate fat diet (western diet); assay: Body fat in C57 Black mice fed a western diet (GBR, FA, clonidine and combinations); conditions: mice on western diet; GBR 25 mg/kg, FA 10 mg/kg, clonidine 0.075 mg/kg; 14 days; relative to vehicle and BC/SKF groups; FIG. 7
# Protocol: Female C57 Black mice were maintained on a 12 hour daily photoperiod and fed a high simple sugar/moderate fat diet (western diet) for several weeks to induce obesity and then different groups of animals (n =5-8/group) were treated with either GBR 12909 (25 mg/kg), FA (10 mg/kg), clonidine (0.075 mg/kg), GBR (25 mg/kg) plus FA (10 mg/kg), GBR (25 mg/kg) plus clonidine (0.075 mg/kg), bromocriptine (10 mg/kg) plus SKF38393 (10 mg/kg), or vehicle and sacrificed after 14 days of treatment to analyze body fat store levels.
# [6] = tested on: obese, diabetic female ob/ob mice; assay: Low dose amphetamine with or without bromocriptine in ob/ob mice; conditions: amphetamine 3 mg/kg
# Text: Amphetamine is a selective presynaptic dopamine release enhancer. It also acts as a presynaptic noradrenergic release enhancer but at higher dosages that will counter the effect of the dopamine reuptake inhibition activity to improve metabolism. However, addition of a dopamine D2 receptor agonist will act to reduce any amphetamine-induced increase in synaptic noradrenaline level and therefore should produce a more pronounced desired effect on metabolic disease than amphetamine or the D2 receptor agonist alone. A study was conducted to determine the effects of low dose amphetamine (3 mg/kg) with or without the dopamine D2 receptor agonist bromocriptine (5-<10 mg/kg dose) upon body weight gain, blood glucose, plasma free fatty acid and triglyceride levels in obese, diabetic mice (ob/ob strain). […] The ob/ob mouse is hyperphagic, obese, insulin resistant, diabetic and dyslipidemic due to the absence of functional leptin as a result of a mutation in this gene. Starvation or calorie restriction of these mice leads to increases in plasma free fatty acid levels that can function over the long term to worsen diabetes.
# On the fifteenth day of the study and approximately 24 hours after the final treatment animals were sacrificed and blood samples were obtained for the analyses of blood glucose, plasma free fatty acid and triglyceride levels. […] Amphetamine had no effect on final body weight however, amphetamine plus bromocriptine reduced final body weight from 44±1 g to 39=/- 1.5 g.
# [7] = tested on: obese, diabetic female ob/ob mice; assay: Fusaric acid plus SKF 38393 in ob/ob mice; conditions: fusaric acid 15 mg/kg, SKF 38393 10 mg/kg
# Protocol: Fusaric acid is a dopamine beta hydroxylase inhibitor that reduces noradrenaline synthesis in noradrenergic neurons. It is not present in dopaminergic neurons and thus exerts no such effect there. SKF38393 is a post-synaptic dopamine D1 receptor agonist with no marked influence on noradrenergic neurons. A study was conducted to determine the interactive effects of fusaric acid plus SKF 38393 on body fat store levels, and blood glucose and plasma triglyceride levels in ob/ob mice. The ob/ob mouse is hyperphagic, obese, insulin resistant, diabeteic and dyslipidemic due to the absence of functional leptin as a result of a mutation in this gene.
# Obese, diabetic female ob/ob mice (body weight of approximately 33 g) maintained on 14 hour daily photoperiods, housed one per cage and allowed to feed ad libitum were randomized to once daily treatment with either fusaric acid (15 mg/kg; n=6-8), SKF 38393 (10 mg/kg; n=6-8), both fusaric acid (15 mg/kg) and SKF 38393 (10 mg/kg) (n=6-8), or vehicle (control group; n=6-8) for a 14 day period. On the fifteenth day of the study and approximately 24 hours after the final treatment animals were sacrificed and blood samples were obtained for the analyses of blood glucose, plasma free fatty acid and triglyceride levels. Relative to controls, fusaric acid raised blood glucose from 380±30 mg/dl to 430±30 mg/dl and SKF 38393 reduced blood glucose to 290±55 mg/dl. However, fusaric acid plus SKF 38393 reduced blood glucose to 180±20 mg/dl. […] Neither fusaric acid nor SKF 38393 had any effect on retroperitoneal fat pad weight (735±43 mg and 735±50 mg, respectively versus control value of 727±25 mg) however, the combination of fusaric acid plus SKF 38393 reduced retroperitoneal fat pad weight to 680±25 mg.
# [8] = tested on: high fat fed, hypertensive SHR rats; assay: Quinelorane plus fusaric acid in high fat fed, hypertensive SHR rats; conditions: SHR rats on high fat diet
# Protocol: Male SHR rats were maintained on 14 hour daily photoperiods and fed a high fat diet (60% of energy from fat; 5.24 kcal/gram weight) for 3 weeks and then divided into different groups and treated with either quinelorane (Q; a dopamine D2/D3 mixed receptor agonist) (0.075 mg/kg), fusaric acid (FA; a dopamine beta hydroxylase inhibitor) (12.5 mg/kg), quinelorane (0.075 mg/kg) plus FA (Q/FA) (12.5 mg/kg), or vehicle at 13 hours after light onset for 17 days. The doses of Q and FA were set at less than half maximal to effect central dopamine receptor binding functions and dopamine beta hydroxylase activity, respectively. […] Blood pressure measurements were taken at 14 days of treatment and animals were sacrificed at 18 days of treatment for analyses of body fat and humoral factors and metabolites. […] Respecting blood glucose, although both Q and FA reduced glucose level relative to vehicle, only the Q/FA regimen normalized blood glucose in these animals relative to vehicle (FIG. 6).
# [9] = relative to vehicle, 18 days of treatment
smiles,measurement,setting,value
"Cl.Cl.Fc1ccc(C(OCCN2CCN(CCCc3ccccc3)CC2)c2ccc(F)cc2)cc1 [GBR 12909, 1-(2-[bis(4-Fluorophenyl)methoxy]ethyl)-4-(3-phenylpropyl)piperazine dihydrochloride]",reduction of plasma triglyceride level relative to controls,[1],approximately 32%
same,blood glucose,"[1]; about 24 hours after final treatment, controls 455±50",145 ± 25 mg/dL
same,final body weight,[1]; controls 42±2,28 ± 0.5 g
same,plasma free fatty acid levels,[1]; controls 780±40,450 ± 20 µM
same,blood glucose,[2],221 ± 31 mg/dL
same,body weight (normalization),"[3]; 2 weeks of treatment, normal weight for age matched controls=28 grams, FIG. 15",not observed
same,blood glucose level,"[3]; GBR 12909 10 mg/kg, FA 15 mg/kg, 14 days, FIG. 11",no significant effect
same,"plasma insulin levels compared to lean, insulin sensitive, non-diabetic mice","[3]; GBR 12909 10 mg/kg, FA 15 mg/kg, 14 days, FIG. 12",significantly higher
same,"reducing plasma insulin, compared with bupropion at equal dose",[4]; 20 mg/kg each,much more effective
same,HOMA-IR values,"[4]; GBR 20 mg/kg, compared to vehicle and Bupropion (20 mg/kg) groups, FIG. 19",significantly reduced
same,body fat (intraabdominal fat pad),"[4]; GBR 20 mg/kg, compared to vehicle and Bupropion (20 mg/kg) treatment, FIG. 17",significantly reduced
same,blood glucose,"[4]; GBR 20 mg/kg, relative to vehicle and Bupropion (20 mg/kg) groups, FIG. 18",significantly reduced
"Clc1cccc(Cl)c1NC1=NCCN1 [clonidine, 2-(2,6-dichloroanilino)-2-imidazoline]",blood glucose,[2],250 ± 35 mg/dL
same,body fat store level (intraabdominal fat pad),[5],no effect
CC(N)Cc1ccccc1 (centres unmarked) [amphetamine],effect on final body weight,[6]; 14 days,no effect
same,plasma free fatty acid levels,"[6]; 14 days, controls 900±100",510 ± 30 µM
same,plasma triglyceride levels,"[6]; bromocriptine 5-<10 mg/kg, 14 days, controls 175±21",70 ± 7 mg/dL
same,blood glucose,"[6]; bromocriptine 5-<10 mg/kg, once daily 14 days, controls 422±46",348 ± 22 mg/dL
"Cl.Oc1cc2c(cc1O)C(c1ccccc1)CNCC2 (centres unmarked) [SKF 38393, 1-phenyl-7,8-dihydroxy-2,3,4,5-tetrahydro-1H-3-benzazepine hydrochloride]",retroperitoneal fat pad weight,"[7]; 14 days, control value 727±25",735 ± 50 mg
same,plasma triglyceride level,"[7]; 14 days, controls 155±15",130 ± 7 mg/dL
same,blood glucose,"[7]; alone or both, once daily 14 days, controls 380±30",290 ± 55 mg/dL
CCCN1CCC[C@@H]2Cc3nc(N)ncc3C[C@H]21 [Q],change from baseline body weight (weight loss),"[8]; Q 0.075 mg/kg, FA 12.5 mg/kg, 17 days, at 13 hours after light onset, FIGS. 1 and 2",modest if any effects
same,desensitization to the effects on weight loss,"[8]; Q 0.075 mg/kg, weight regained to baseline values by treatment end",exhibited desensitization
same,plasma endothelin-1 (endothelin 1-21 fragment) level,[8]; [9],no significant effect
same,plasma nitric oxide level,[8]; [9],no significant effect
same,blood glucose level,"[8]; relative to vehicle, FIG. 6",reduced
